Measurements reported in ChEMBL document CHEMBL3120075 (J Med Chem, 2014).
pEC50: −log10 of the molar value.

How the values were obtained:
Rattus norvegicus = species: Rattus norvegicus; assay: Toxicity in Sprague-Dawley rat assessed as adverse effects by 14 day toxicology study; format: organism-based; conditions: in vivo, 336 h
Canis familiaris = species: Canis familiaris; assay: Toxicity in beagle dog assessed as adverse effects by 14 day toxicology study; format: organism-based, Canis lupus familiaris; conditions: in vivo, 336 h
Hepatitis C virus [1] = assay: Ratio of EC50 for HCV genotype 1b Con1 infected in human HuH7 cells in presence of 10% BSA to EC50 for HCV genotype 1b Con1 infected in human HuH7 cells; format: functional, Hepacivirus hominis, isolate Con1, Huh-7
Hepatitis C virus [2] = assay: Ratio of EC50 for HCV genotype 1b Con1 infected in human HuH7 cells in presence of human serum to EC50 for HCV genotype 1b Con1 infected in human HuH7 cells; format: functional, Hepacivirus hominis, isolate Con1, Huh-7
Hepatitis C virus [3] = assay: Ratio of EC50 for HCV genotype 1a H77 infected in human HuH7 cells in presence of 10% BSA to EC50 for HCV genotype 1a H77 infected in human HuH7 cells; format: functional, Hepacivirus hominis, Huh-7
Hepatitis C virus [4] = assay: Ratio of EC50 for HCV genotype 1a H77 infected in human HuH7 cells in presence of human serum to EC50 for HCV genotype 1a H77 infected in human HuH7 cells; format: functional, Hepacivirus hominis, Huh-7
Hepatitis C virus [5] = assay: Antiviral activity against HCV genotype 1b Con1 infected in human HuH7 cells assessed as inhibition of viral RNA replication after 3 days by renilla luciferase reporter gene assay in presence of human serum; format: functional, organism-based, Hepacivirus hominis; conditions: isolate Con1, Huh-7, 72 h
Hepatitis C virus [6] = assay: Antiviral activity against HCV genotype 1a H77 infected in human HuH7 cells assessed as inhibition of viral RNA replication after 3 days by renilla luciferase reporter gene assay in presence of 10% BSA; format: functional, organism-based, Hepacivirus hominis; conditions: genotype 1a H77, Huh-7, 72 h
Hepatitis C virus [7] = assay: Antiviral activity against HCV genotype 1a H77 infected in human HuH7 cells assessed as inhibition of viral RNA replication after 3 days by renilla luciferase reporter gene assay in presence of human serum; format: functional, organism-based, Hepacivirus hominis; conditions: genotype 1a H77, Huh-7, 72 h
Hepatitis C virus [8] = assay: Antiviral activity against HCV genotype 1b Con1 infected in human HuH7 cells assessed as inhibition of viral RNA replication after 3 days by renilla luciferase reporter gene assay in presence of 10% BSA; format: functional, organism-based, Hepacivirus hominis; conditions: isolate Con1, Huh-7, 72 h
[9] = Oral bioavailability in beagle dog at 0.5 mg/kg; format: ADME, organism-based, Canis lupus familiaris; conditions: in vivo
[10] = Oral bioavailability in cynomolgus monkey at 1 mg/kg; format: ADME, organism-based, Macaca fascicularis; conditions: in vivo
[11] = Mean residence time in cynomolgus monkey at 0.5 mg/kg, iv; format: ADME, organism-based, Macaca fascicularis; parameters: dose 0.5 mg/kg, route intravenous; conditions: in vivo
[12] = Half life in cynomolgus monkey at 0.5 mg/kg, iv; format: ADME, organism-based, Macaca fascicularis; parameters: dose 0.5 mg/kg, route intravenous; conditions: in vivo
[13] = Volume of distribution at steady state in cynomolgus monkey at 0.5 mg/kg, iv; format: ADME, organism-based, Macaca fascicularis; parameters: dose 0.5 mg/kg, route intravenous; conditions: in vivo, read-out: Vdss
[14] = Clearance in cynomolgus monkey at 0.5 mg/kg, iv; format: ADME, organism-based, Macaca fascicularis; parameters: dose 0.5 mg/kg, route intravenous; conditions: in vivo
[15] = Mean residence time in beagle dog at 0.2 mg/kg, iv; format: ADME, organism-based, Canis lupus familiaris; parameters: dose 0.2 mg/kg, route intravenous; conditions: in vivo
[16] = Half life in beagle dog at 0.2 mg/kg, iv; format: ADME, organism-based, Canis lupus familiaris; parameters: dose 0.2 mg/kg, route intravenous; conditions: in vivo
[17] = Volume of distribution at steady state in beagle dog at 0.2 mg/kg, iv; format: ADME, organism-based, Canis lupus familiaris; parameters: dose 0.2 mg/kg, route intravenous; conditions: in vivo, read-out: Vdss
[18] = Clearance in beagle dog at 0.2 mg/kg, iv; format: ADME, organism-based, Canis lupus familiaris; parameters: dose 0.2 mg/kg, route intravenous; conditions: in vivo
[19] = Oral bioavailability in Sprague-Dawley rat at 2 mg/kg; format: ADME, organism-based; conditions: in vivo
[20] = Mean residence time in Sprague-Dawley rat at 1 mg/kg, iv; format: ADME, organism-based; parameters: dose 1 mg/kg, route intravenous; conditions: in vivo
[21] = Half life in Sprague-Dawley rat at 1 mg/kg, iv; format: ADME, organism-based; parameters: dose 1 mg/kg, route intravenous; conditions: in vivo
[22] = Volume of distribution at steady state in Sprague-Dawley rat at 1 mg/kg, iv; format: ADME, organism-based; parameters: dose 1 mg/kg, route intravenous; conditions: in vivo, read-out: Vdss
[23] = Clearance in Sprague-Dawley rat at 1 mg/kg, iv; format: ADME, organism-based; parameters: dose 1 mg/kg, route intravenous; conditions: in vivo
Hepatitis C virus [24] = assay: Antiviral activity against HCV genotype 1b Con1 infected in human HuH7 cells assessed as inhibition of viral RNA replication after 3 days by renilla luciferase reporter gene assay; format: functional, organism-based, Hepacivirus hominis; conditions: isolate Con1, Huh-7, 72 h
Hepatitis C virus [25] = assay: Antiviral activity against HCV genotype 1a H77 infected in human HuH7 cells assessed as inhibition of viral RNA replication after 3 days by renilla luciferase reporter gene assay; format: functional, organism-based, Hepacivirus hominis; conditions: genotype 1a H77, Huh-7, 72 h
[26] = Metabolic stability in human liver microsomes assessed as hepatic extraction at 3 uM after 60 mins by LC/MS/MS analysis; format: ADME; conditions: read-out: ERH
[27] = Metabolic stability in cynomolgus monkey liver microsomes assessed as hepatic extraction at 3 uM after 60 mins by LC/MS/MS analysis; format: ADME, Macaca fascicularis, Microsome; conditions: read-out: ERH
[28] = Metabolic stability in beagle dog liver microsomes assessed as hepatic extraction at 3 uM after 60 mins by LC/MS/MS analysis; format: ADME, Canis lupus familiaris; conditions: read-out: ERH
[29] = Metabolic stability in Sprague-Dawley rat liver microsomes assessed as hepatic extraction at 3 uM after 60 mins by LC/MS/MS analysis; format: ADME; conditions: read-out: ERH
[30] = Ratio of EC50 for HCV genotype 1a H77 infected in human HuH7 cells in presence of 10% BSA to plasma concentration in fasted healthy human at 100 mg, po at 24 hrs
[31] = Ratio of EC50 for HCV genotype 1a H77 infected in human HuH7 cells in presence of human serum to plasma concentration in fasted healthy human at 100 mg, po at 24 hrs

Structure (SMILES): COC(=O)N[C@H](C(=O)N1CC2(CC2)C[C@H]1c1nc(-c2ccc3c(c2)C(F)(F)c2cc(-c4ccc5[nH]c([C@@H]6[C@H]7CC[C@H](C7)N6C(=O)[C@@H](NC(=O)OC)C(C)C)nc5c4)ccc2-3)c[nH]1)C(C)C
- Activity (Rattus norvegicus): Non-toxic
- Activity (Canis familiaris): Non-toxic
- Ratio EC50 (Hepatitis C virus [1]): 6.7
- Ratio EC50 (Hepatitis C virus [2]): 6.7
- Ratio EC50 (Hepatitis C virus [3]): 6.7
- Ratio EC50 (Hepatitis C virus [4]): 6.7
- pEC50 (Hepatitis C virus [5]): 10.57
- pEC50 (Hepatitis C virus [6]): 9.68
- pEC50 (Hepatitis C virus [7]): 9.68
- pEC50 (Hepatitis C virus [8]): 10.57
- bioavailability [9]: 53%
- bioavailability [10]: 41.1%
- MRT [11]: 12.9 h
- half-life [12]: 618 min
- Vd [13]: 2.15 L/kg
- clearance [14]: 2.83 mL/min/kg
- MRT [15]: 9.2 h
- half-life [16]: 445 min
- Vd [17]: 1.19 L/kg
- clearance [18]: 2.17 mL/min/kg
- bioavailability [19]: 32.5%
- MRT [20]: 6.19 h
- half-life [21]: 280 min
- Vd [22]: 2.66 L/kg
- clearance [23]: 7.17 mL/min/kg
- pEC50 (Hepatitis C virus [24]): 11.40
- pEC50 (Hepatitis C virus [25]): 10.51
- hepatic extraction ratio at 1 h, 3 µM [26]: < 0.127
- hepatic extraction ratio at 1 h, 3 µM [27]: < 0.127
- hepatic extraction ratio at 1 h, 3 µM [28]: < 0.095
- hepatic extraction ratio at 1 h, 3 µM [29]: < 0.092
- Ratio [30]: 470
- Ratio [31]: 470
